Source: patent US6979686B1, “Substituted pyrazoles as p38 kinase inhibitors” (Pharmacia Corporation, priority 2001, dated 2005)
Like-named read-outs stand apart in the source and are kept apart here. Blank lines part the entries; values can stand above or below the compound they belong to.

Experiments:
human p38 kinase alpha = biological target: T1, human p38 kinase alpha (Homo sapiens, UniProt Q16539); assay: p38 kinase in vitro assay, phosphorylation of biotinylated PHAS-I with 32P-ATP; format: biochemical
T1 construct: GST (N, cleaved yes); made in house; host or cells: E. coli DH10B

[1] = system: TNF-α, U937 human histiocytic lymphoma cell line; assay: LPS stimulation of TNF production by U937 cells; format: cell-based; details: for inhibition at 1 µM: U-937, @ 1.0 uM
Summary of the method: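 U937 cells differentiated 24 h with 20 ng/ml PMA, rested 24-48 h, used at 2 million cells/ml. Compounds in 0.1% DMSO final; LPS (E. coli, 100 ng/ml final) stimulation for 4 h at 37° C. Released TNF-α measured by ELISA; IC50 (μM).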

[2] = @ 10.0 uM, TNF production, U937 cells stimulated with LPS
[3] = in vitro P38-alpha kinase inhibition, read-out: P38 alpha kinase IC50
[4] = Homo sapiens, TNF production, U937 cells stimulated with LPS, read-out: U937 Cell % inhib @ conc.
[5] = in vitro P38-alpha kinase, read-out: P38 alpha kinase IC50
[6] = Homo sapiens, U-937, TNF production, human U937 cells stimulated with LPS, read-out: U937 Cell IC50
[7] = @ 1.0 uM, TNF production, U937 cells stimulated with LPS
[8] = Homo sapiens, U-937, TNF production in human U937 cells stimulated with LPS, read-out: U937 Cell IC50
[9] = TNF production, U937 cells stimulated with LPS, read-out: U937 Cell IC50, uM or % inhib @ conc. (uM): IC50

T1 sequence (Q16539 whole entry): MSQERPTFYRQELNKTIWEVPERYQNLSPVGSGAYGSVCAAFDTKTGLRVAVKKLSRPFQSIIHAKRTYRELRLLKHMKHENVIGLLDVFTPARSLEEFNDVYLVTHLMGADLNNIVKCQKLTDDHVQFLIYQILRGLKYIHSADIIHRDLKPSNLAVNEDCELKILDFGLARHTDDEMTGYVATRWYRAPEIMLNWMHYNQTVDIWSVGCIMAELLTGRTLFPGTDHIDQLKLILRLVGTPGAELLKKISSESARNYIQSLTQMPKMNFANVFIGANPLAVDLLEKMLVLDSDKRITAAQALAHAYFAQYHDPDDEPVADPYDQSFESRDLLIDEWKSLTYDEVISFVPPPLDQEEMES

SMILES: O=C(NCCCc1[nH]nc(-c2ccc(F)cc2)c1-c1ccncc1)NC1CN2CCC1CC2 (stereo not drawn) [Example B-1309]
IC50 (human p38 kinase alpha; [5]): 45 nM
IC50 [1, 6]: > 1 µM

SMILES: O=[N+]([O-])c1ccc(S(=O)(=O)NCc2[nH]nc(-c3ccc(F)cc3)c2-c2ccncc2)cc1 [Example B-0115]
P38 alpha kinase % inhib @ conc. (human p38 kinase alpha; @ 1.0 uM): 47.0% @
U937 Cell % inhib @ conc. [1, 7]: 2.0% @

SMILES: CNC(=O)NC(Cc1ccccc1)c1[nH]nc(-c2ccc(F)cc2)c1-c1ccncc1 (stereo not drawn) [Example B-0775]
IC50 (human p38 kinase alpha; [3]): 600 nM
IC50 [1, 8]: > 1 µM

SMILES: Cc1[nH]nc(-c2cccc(Cl)c2)c1-c1ccncc1 [Example A-51]
IC50 (human p38 kinase alpha; activated human p38 kinase alpha, PHAS-I substrate, 50 μM unlabeled ATP, read-out: p38 kinase IC50): < 100 nM
IC50 ([1]; Table 5, LPS-stimulated U937 cells, TNF-α, read-out: U937 Cell Assay IC50): 0.074 µM

SMILES: COc1ccc(S(=O)(=O)NC(Cc2ccccc2)c2[nH]nc(-c3ccc(F)cc3)c2-c2ccncc2)cc1OC (stereo not drawn) [Example B-0722]
IC50 (human p38 kinase alpha; [3]): 70 nM
IC50 [1, 8]: > 1 µM

SMILES: O=C(NC(Cc1ccccc1)c1[nH]nc(-c2ccc(F)cc2)c1-c1ccncc1)c1ccc(F)c(F)c1F (stereo not drawn) [Example B-0813]
IC50 (human p38 kinase alpha; [3]): 3020 nM
IC50 [1, 6]: > 1 µM

SMILES: CN(C(=O)NC(Cc1ccccc1)c1[nH]nc(-c2ccc(F)cc2)c1-c1ccncc1)c1ccccc1 (stereo not drawn) [Example B-0776]
IC50 (human p38 kinase alpha; [3]): 900 nM
IC50 ([1]; TNF production in human U937 cells stimulated with LPS, read-out: U937 Cell IC50): > 1 µM

SMILES: CCOC(=O)c1cccc(NC(=O)NCCc2[nH]nc(-c3ccc(F)cc3)c2-c2ccncc2)c1 [Example B-0942]
P38 alpha kinase % inhib @ conc. (uM) (human p38 kinase alpha; @ 1.0 uM): 82.0% @
U937 Cell % inhib @ conc. (uM) [1, 7]: 2.0% @

SMILES: CN(C(=O)NC(Cc1ccccc1)c1[nH]nc(-c2ccc(F)cc2)c1-c1ccncc1)c1ccccc1 (stereo not drawn) [Example B-0731]
IC50 (human p38 kinase alpha; [3]): 870 nM
IC50 [1, 8]: > 1 µM

SMILES: CNC(=O)NC(Cc1ccccc1)c1[nH]nc(-c2ccc(F)cc2)c1-c1ccncc1 (stereo not drawn) [Example B-0730]
IC50 (human p38 kinase alpha; [3]): 250 nM
inhibition at 1 µM ([1]; Homo sapiens, TNF production in human U937 cells stimulated with LPS, read-out: U937 Cell % inhib @ conc.): 11%

SMILES: CC(NC(=O)c1cccc(C#N)c1)c1[nH]nc(-c2ccc(F)cc2)c1-c1ccncc1 (stereo not drawn) [Example B-0676]
IC50 (human p38 kinase alpha; [3]): 2090 nM
U937 Cell % inhib @ conc. (uM) ([1]; @ 1.0 uM, TNF production in human U937 cells stimulated with LPS): 22.0% @

SMILES: COc1ccc(CC(=O)NCc2[nH]nc(-c3ccc(F)cc3)c2-c2ccncc2)cc1OC [Example B-0034]
inhibition at 1 µM (human p38 kinase alpha; @ 1.0 uM, read-out: P38 alpha kinase % inhib @ conc.): 95%
IC50 [1, 6]: 10 µM

SMILES: CNC(=O)CCC(NC(=O)Cc1cccc(OC)c1)c1[nH]nc(-c2ccc(F)cc2)c1-c1ccncc1 (stereo not drawn) [Example B-0872]
IC50 (human p38 kinase alpha; [3]): 3130 nM
inhibition at 1 µM [1, 4]: 3%

More lines, main results first:

P38 alpha kinase IC50, uM or % inhib @ conc. (uM): % inhib (human p38 kinase alpha; @ 100.0 uM): 55% @
U937 Cell IC50, uM or % inhib @ conc. (uM): % inhib [1, 2]: 10.0% @
SMILES: CCN(CC)CCN(Cc1ccc(Cl)cc1)C(=O)Cn1nc(-c2ccc(F)cc2)c(-c2ccncc2)c1C [Example B-2398]

IC50 (human p38 kinase alpha; [3]): 180 nM
SMILES: CC(=O)Nc1ccc(S(=O)(=O)NCCc2[nH]nc(-c3ccc(F)cc3)c2-c2ccncc2)cc1 [Example B-1059]
inhibition at 1 µM [1, 4]: 24%

IC50 (human p38 kinase alpha; [5]): 350 nM
IC50 [1, 6]: > 1 µM
SMILES: CS(=O)(=O)c1ccc(CNC(=O)NCCCc2[nH]nc(-c3ccc(F)cc3)c2-c2ccncc2)cc1 [Example B-1312]

P38 alpha kinase IC50, uM or % inhib @ conc. (uM): % inhib (human p38 kinase alpha; @ 10.0 uM): 90.0% @
U937 Cell IC50, uM or % inhib @ conc. (uM): % inhib [1, 2]: 28.0% @
SMILES: Cc1c(-c2ccncc2)c(-c2ccc(F)cc2)nn1CC(=O)Nc1ccc(S(=O)(=O)C(F)F)cc1 [Example B-2446]

IC50 (human p38 kinase alpha; [5]): 1610 nM
SMILES: O=S(=O)(c1cccc(C(F)(F)F)c1)N1CCC(c2[nH]nc(-c3ccc(F)cc3)c2-c2ccncc2)CC1 [Example B-1468]
inhibition at 1 µM ([1]; Homo sapiens, TNF production, LPS-stimulated U937 cells, read-out: U937 Cell % inhib @ conc.): 10%

P38 alpha kinase % inhib @ conc. (human p38 kinase alpha; @ 100.0 uM): 55.0% @
IC50 ([1]; TNF production, human U937 cells stimulated with LPS, read-out: U937 Cell IC50): > 10 µM
SMILES: Cc1c(-c2ccncc2)c(-c2ccc(F)cc2)nn1CC(=O)N(CC(C)C)CC(C)C [Example B-2372]

IC50 (human p38 kinase alpha; [5]): 40 nM
IC50 [1, 6]: 0.27 µM
SMILES: O=C(c1ccc(I)cc1)N1CCC(c2[nH]nc(-c3ccc(F)cc3)c2-c2ccncc2)CC1 [Example B-1366]

P38 alpha kinase % inhib @ conc. (human p38 kinase alpha; @ 10.0 uM): 73.0% @
SMILES: Cc1c(-c2ccncc2)c(-c2ccc(F)cc2)nn1CC(=O)NC1CCc2ccccc21 (stereo not drawn) [Example B-2318]
U937 Cell % inhib @ conc. ([1]; @ 10.0 uM, TNF production, LPS-stimulated U937 cells): 25.0% @

P38 alpha kinase IC50, uM or % inhib @ conc. (uM): % inhib (human p38 kinase alpha; @ 10.0 uM): 43.0% @
IC50 [1, 9]: > 10 µM
SMILES: Cc1c(-c2ccncc2)c(-c2ccc(F)cc2)nn1CC(=O)N(C)CCn1ccnc1 [Example B-2393]

P38 alpha kinase IC50, uM or % inhib @ conc. (uM): % inhib (human p38 kinase alpha; @ 100.0 uM): 47% @
IC50 [1, 9]: > 10 µM
SMILES: Cc1cc(Cl)ccc1OCC1SCCN1C(=O)Cn1nc(-c2ccc(F)cc2)c(-c2ccncc2)c1C (stereo not drawn) [Example B-2405]

IC50 (human p38 kinase alpha; [5]): 3000 nM
SMILES: Cc1c(-c2ccncc2)c(-c2ccc(F)cc2)nn1CC(=O)NCCCN1CCN(C)CC1 [Example B-2289]
inhibition at 10 µM ([1]; Homo sapiens, U-937, @ 10.0 uM, TNF production, LPS-stimulated U937 cells, read-out: U937 Cell % inhib @ conc.): 30%
